Assay results reported in ChEMBL document CHEMBL3046672, “Synthesis and bioevaluation of Schiff and Mannich bases of isatin derivatives with 4-amino-5-benzyl-2,4-dihydro-3H-1,2,4-triazole-3-thione” (2012).

Experiments:
Assay type in all cases: functional
Settings in all cases: read-out: DIZ
Pseudomonas aeruginosa [1] = test: Antibacterial activity against Pseudomonas aeruginosa at 50 ug/ml
Pseudomonas aeruginosa [2] = test: Antibacterial activity against Pseudomonas aeruginosa at 100 ug/ml
Pseudomonas aeruginosa [3] = test: Antibacterial activity against Pseudomonas aeruginosa at 200 ug/ml
Escherichia coli [4] = test: Antibacterial activity against Escherichia coli at 50 ug/ml
Escherichia coli [5] = test: Antibacterial activity against Escherichia coli at 100 ug/ml
Escherichia coli [6] = test: Antibacterial activity against Escherichia coli at 200 ug/ml
Staphylococcus aureus [7] = test: Antibacterial activity against Staphylococcus aureus at 200 ug/ml
Staphylococcus aureus [8] = test: Antibacterial activity against Staphylococcus aureus at 100 ug/ml
Aspergillus niger [9] = test: Antifungal activity against Aspergillus niger at 200 ug/ml
Staphylococcus aureus [10] = test: Antibacterial activity against Staphylococcus aureus at 50 ug/ml
Bacillus subtilis [11] = test: Antibacterial activity against Bacillus subtilis at 200 ug/ml
Bacillus subtilis [12] = test: Antibacterial activity against Bacillus subtilis at 100 ug/ml
Bacillus subtilis [13] = test: Antibacterial activity against Bacillus subtilis at 50 ug/ml
Candida albicans [14] = test: Antifungal activity against Candida albicans at 200 ug/ml
Candida albicans [15] = test: Antifungal activity against Candida albicans at 100 ug/ml
Candida albicans [16] = test: Antifungal activity against Candida albicans at 50 ug/ml
Aspergillus niger [17] = test: Antifungal activity against Aspergillus niger at 100 ug/ml

Row | SMILES | zone of inhibition at 50 µg/mL (Pseudomonas aeruginosa [1]) [mm] | zone of inhibition at 100 µg/mL (Pseudomonas aeruginosa [2]) [mm] | zone of inhibition at 200 µg/mL (Pseudomonas aeruginosa [3]) [mm] | zone of inhibition at 50 µg/mL (Escherichia coli [4]) [mm] | zone of inhibition at 100 µg/mL (Escherichia coli [5]) [mm] | zone of inhibition at 200 µg/mL (Escherichia coli [6]) [mm] | zone of inhibition at 200 µg/mL (Staphylococcus aureus [7]) [mm] | zone of inhibition at 100 µg/mL (Staphylococcus aureus [8]) [mm] | zone of inhibition at 200 µg/mL (Aspergillus niger [9]) [mm] | zone of inhibition at 50 µg/mL (Staphylococcus aureus [10]) [mm] | zone of inhibition at 200 µg/mL (Bacillus subtilis [11]) [mm] | zone of inhibition at 100 µg/mL (Bacillus subtilis [12]) [mm] | zone of inhibition at 50 µg/mL (Bacillus subtilis [13]) [mm] | zone of inhibition at 200 µg/mL (Candida albicans [14]) [mm] | zone of inhibition at 100 µg/mL (Candida albicans [15]) [mm] | zone of inhibition at 50 µg/mL (Candida albicans [16]) [mm] | zone of inhibition at 100 µg/mL (Aspergillus niger [17]) [mm]
1 | O=C1/C(=N\n2c(Cc3ccccc3)n[nH]c2=S)c2cc(Cl)ccc2N1CN1CCCCC1 | 10 | 15 | 21 | 10 | 16 | 25 | 20 | 12 | 15 | 9 | 22 | 13 | 9 | 16 | 11 | 9 | 9
2 | O=C1/C(=N\n2c(Cc3ccccc3)n[nH]c2=S)c2cc(Br)ccc2N1CN1CCCCC1 | 10 | 15 | 22 | 10 | 16 | 25 | 21 | 14 | 15 | 9 | 20 | 15 | 10 | 16 | 10 | – | 9
3 | O=C1/C(=N\n2c(Cc3ccccc3)n[nH]c2=S)c2ccccc2N1CN1CCOCC1 | 9 | 12 | 22 | 9 | 15 | 23 | 19 | 15 | 12 | 10 | 20 | 13 | 9 | 15 | 10 | – | 9
4 | O=C1/C(=N\n2c(Cc3ccccc3)n[nH]c2=S)c2cc(Cl)ccc2N1CN1CCOCC1 | 9 | 15 | 25 | 11 | 16 | 25 | 20 | 14 | 17 | 9 | 22 | 13 | 9 | 17 | 10 | – | 9
5 | O=C1/C(=N\n2c(Cc3ccccc3)n[nH]c2=S)c2cc(Br)ccc2N1CN1CCOCC1 | 10 | 15 | 24 | 9 | 16 | 24 | 20 | 13 | 12 | 9 | 21 | 12 | 9 | 15 | 10 | – | 9
6 | O=C(O)c1cn(C2CC2)c2cc(N3CCNCC3)c(F)cc2c1=O [CIPROFLOXACIN] | – | – | 28 | – | – | 30 | 26 | – | – | – | 25 | – | – | – | – | – | –
7 | OC(Cn1cncn1)(Cn1cncn1)c1ccc(F)cc1F [FLUCONAZOLE] | – | – | – | – | – | – | – | – | 18 | – | – | – | – | 20 | – | – | –
